Measurements reported in PubChem BioAssay (NCI).
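Briefly, cells in 96-well plates were exposed to five compound concentrations for 48 h, and endpoints were estimated by linear interpolation. TGI is the concentration that stops growth completely.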

Legend:
Test in all cases: DTP human tumour cell line panel, 48 h
786-0 renal = test system: 786-0 renal
A549 NSCLC = test system: A549 NSCLC
BT-549 breast = test system: BT-549 breast
CAKI-1 renal = test system: CAKI-1 renal
CCRF-CEM leukemia = test system: CCRF-CEM leukemia
COLO 205 colon = test system: COLO 205 colon
DU-145 prostate = test system: DU-145 prostate
EKVX NSCLC = test system: EKVX NSCLC
HCC-2998 colon = test system: HCC-2998 colon
HCT-15 colon = test system: HCT-15 colon
HL-60(TB) leukemia = test system: HL-60(TB) leukemia
HOP-62 NSCLC = test system: HOP-62 NSCLC
HOP-92 NSCLC = test system: HOP-92 NSCLC
HS 578T breast = test system: HS 578T breast
HT29 colon = test system: HT29 colon
IGROV1 ovarian = test system: IGROV1 ovarian
K-562 leukemia = test system: K-562 leukemia
KM12 colon = test system: KM12 colon
LOX IMVI melanoma = test system: LOX IMVI melanoma
M14 melanoma = test system: M14 melanoma
MALME-3M melanoma = test system: MALME-3M melanoma
MCF7 breast = test system: MCF7 breast
MDA-MB-231 breast = test system: MDA-MB-231 breast
MDA-N = test system: MDA-N
MOLT-4 leukemia = test system: MOLT-4 leukemia
NCI-H23 lung = test system: NCI-H23 lung
NCI-H460 lung = test system: NCI-H460 lung
NCI/ADR-RES ovarian = test system: NCI/ADR-RES ovarian
OVCAR-4 ovarian = test system: OVCAR-4 ovarian
OVCAR-8 ovarian = test system: OVCAR-8 ovarian
RPMI-8226 leukemia = test system: RPMI-8226 leukemia
SF-268 CNS = test system: SF-268 CNS
SF-539 CNS = test system: SF-539 CNS
SK-MEL-28 melanoma = test system: SK-MEL-28 melanoma
SK-MEL-5 melanoma = test system: SK-MEL-5 melanoma
SK-OV-3 ovarian = test system: SK-OV-3 ovarian
SN12C renal = test system: SN12C renal
SNB-75 CNS = test system: SNB-75 CNS
SR leukemia = test system: SR leukemia
SW-620 colon = test system: SW-620 colon
T-47D breast = test system: T-47D breast
TK-10 renal = test system: TK-10 renal
U251 CNS = test system: U251 CNS
UACC-257 melanoma = test system: UACC-257 melanoma
UACC-62 melanoma = test system: UACC-62 melanoma
A498 renal = test system: A498 renal
ACHN renal = test system: ACHN renal
HCT-116 colon = test system: HCT-116 colon
MDA-MB-435 = test system: MDA-MB-435
NCI-H226 lung = test system: NCI-H226 lung
NCI-H522 lung = test system: NCI-H522 lung
OVCAR-3 ovarian = test system: OVCAR-3 ovarian
OVCAR-5 ovarian = test system: OVCAR-5 ovarian
PC-3 prostate = test system: PC-3 prostate
RXF 393 renal = test system: RXF 393 renal
SF-295 CNS = test system: SF-295 CNS
SK-MEL-2 melanoma = test system: SK-MEL-2 melanoma
SNB-19 CNS = test system: SNB-19 CNS
UO-31 renal = test system: UO-31 renal

Work on `COc1ccccc1Nc1nc(NNC(=O)Cc2ccccc2)nc(NNC(=O)c2ccncc2)n1` yielded a TGI (786-0 renal) greater than 10 µM, a TGI (A549 NSCLC) greater than 10 µM and a TGI (BT-549 breast) greater than 10 µM. The TGI (CAKI-1 renal) was greater than 10 µM, the TGI (CCRF-CEM leukemia) was greater than 10 µM and the TGI (COLO 205 colon) was greater than 10 µM. It also gave a TGI (DU-145 prostate) greater than 10 µM, a TGI (EKVX NSCLC) greater than 10 µM and a TGI (HCC-2998 colon) greater than 10 µM. It also gave a TGI (HCT-15 colon) greater than 10 µM, a TGI (HL-60(TB) leukemia) greater than 10 µM and a TGI (HOP-62 NSCLC) greater than 10 µM. It also gave a TGI (HOP-92 NSCLC) greater than 10 µM, a TGI (HS 578T breast) greater than 10 µM and a TGI (HT29 colon) greater than 10 µM. It also gave a TGI (IGROV1 ovarian) greater than 10 µM, a TGI (K-562 leukemia) greater than 10 µM and a TGI (KM12 colon) greater than 10 µM. The TGI (LOX IMVI melanoma) was greater than 10 µM, the TGI (M14 melanoma) was greater than 10 µM and the TGI (MALME-3M melanoma) was greater than 10 µM. It also gave a TGI (MCF7 breast) greater than 10 µM, a TGI (MDA-MB-231 breast) greater than 10 µM and a TGI (MDA-N) greater than 10 µM. The TGI (MOLT-4 leukemia) was greater than 10 µM, the TGI (NCI-H23 lung) was greater than 10 µM and the TGI (NCI-H460 lung) was greater than 10 µM. For the same compound, the TGI (NCI/ADR-RES ovarian) was greater than 10 µM, the TGI (OVCAR-4 ovarian) was greater than 10 µM and the TGI (OVCAR-8 ovarian) was greater than 10 µM. It also gave a TGI (RPMI-8226 leukemia) greater than 10 µM, a TGI (SF-268 CNS) greater than 10 µM and a TGI (SF-539 CNS) greater than 10 µM. The TGI (SK-MEL-28 melanoma) was greater than 10 µM, the TGI (SK-MEL-5 melanoma) was greater than 10 µM and the TGI (SK-OV-3 ovarian) was greater than 10 µM. It also gave a TGI (SN12C renal) greater than 10 µM, a TGI (SNB-75 CNS) greater than 10 µM and a TGI (SR leukemia) greater than 10 µM. For the same compound, the TGI (SW-620 colon) was greater than 10 µM, the TGI (T-47D breast) was greater than 10 µM and the TGI (TK-10 renal) was greater than 10 µM. For the same compound, the TGI (U251 CNS) was greater than 10 µM, the TGI (UACC-257 melanoma) was greater than 10 µM and the TGI (UACC-62 melanoma) was greater than 10 µM.

For `OCC1OC(n2cnc3c(/C=C(/O)c4ccccc4)ncnc32)C(O)C1O` (configuration not stated), the TGI (786-0 renal) was greater than 100 µM, the TGI (A498 renal) was greater than 91.1 µM and the TGI (A549 NSCLC) was greater than 100 µM. The TGI (ACHN renal) was greater than 100 µM, the TGI (BT-549 breast) was greater than 100 µM and the TGI (CAKI-1 renal) was greater than 100 µM. For the same compound, the TGI (CCRF-CEM leukemia) was greater than 100 µM, the TGI (COLO 205 colon) was 2.7 µM and the TGI (DU-145 prostate) was greater than 100 µM. It also gave a TGI (EKVX NSCLC) greater than 100 µM, a TGI (HCT-116 colon) greater than 100 µM and a TGI (HCT-15 colon) greater than 100 µM. For the same compound, the TGI (HL-60(TB) leukemia) was 24 µM, the TGI (HOP-62 NSCLC) was greater than 100 µM and the TGI (HOP-92 NSCLC) was greater than 100 µM. For the same compound, the TGI (HS 578T breast) was greater than 100 µM, the TGI (HT29 colon) was greater than 100 µM and the TGI (IGROV1 ovarian) was greater than 100 µM. For the same compound, the TGI (K-562 leukemia) was greater than 100 µM, the TGI (KM12 colon) was greater than 100 µM and the TGI (LOX IMVI melanoma) was greater than 100 µM. For the same compound, the TGI (M14 melanoma) was greater than 100 µM, the TGI (MALME-3M melanoma) was greater than 100 µM and the TGI (MCF7 breast) was greater than 100 µM. It also gave a TGI (MDA-MB-231 breast) greater than 30 µM, a TGI (MDA-MB-435) greater than 100 µM and a TGI (MDA-N) greater than 100 µM. It also gave a TGI (MOLT-4 leukemia) greater than 100 µM, a TGI (NCI-H226 lung) greater than 92.7 µM and a TGI (NCI-H23 lung) greater than 100 µM. The TGI (NCI-H460 lung) was 7.56 µM, the TGI (NCI-H522 lung) was 43.1 µM and the TGI (NCI/ADR-RES ovarian) was greater than 92 µM. For the same compound, the TGI (OVCAR-3 ovarian) was greater than 100 µM, the TGI (OVCAR-4 ovarian) was greater than 88.1 µM and the TGI (OVCAR-5 ovarian) was greater than 100 µM. For the same compound, the TGI (OVCAR-8 ovarian) was greater than 100 µM, the TGI (PC-3 prostate) was greater than 62.4 µM and the TGI (RPMI-8226 leukemia) was greater than 100 µM. The TGI (RXF 393 renal) was greater than 100 µM, the TGI (SF-268 CNS) was greater than 100 µM and the TGI (SF-295 CNS) was greater than 100 µM. For the same compound, the TGI (SF-539 CNS) was greater than 100 µM, the TGI (SK-MEL-2 melanoma) was greater than 24.7 µM and the TGI (SK-MEL-28 melanoma) was greater than 100 µM. The TGI (SK-MEL-5 melanoma) was 79.7 µM, the TGI (SN12C renal) was greater than 100 µM and the TGI (SNB-19 CNS) was greater than 100 µM. The TGI (SNB-75 CNS) was greater than 25.1 µM, the TGI (SR leukemia) was greater than 100 µM and the TGI (SW-620 colon) was greater than 100 µM. It also gave a TGI (T-47D breast) greater than 100 µM, a TGI (TK-10 renal) of 13.5 µM and a TGI (U251 CNS) greater than 100 µM. It also gave a TGI (UACC-257 melanoma) greater than 62.9 µM, a TGI (UACC-62 melanoma) greater than 100 µM and a TGI (UO-31 renal) greater than 35.7 µM.
